Assay results: PubChem BioAssay (NCI)
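Exposure lasted 48 hours, with cells grown in 96-well plates and compounds tested at five concentrations. GI50 marks 50% less growth. Definition used: TGI = concentration required for complete inhibition of growth.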

Tests used:
Experiment in all cases: growth of human tumour cells (NCI), 48 h
[1] = tested on: OVCAR-3 ovarian
[2] = tested on: NCI-H23 lung
[3] = tested on: HL-60(TB) leukemia
[4] = tested on: NCI-H460 lung
[5] = tested on: UO-31 renal
[6] = tested on: BT-549 breast
[7] = tested on: A498 renal
[8] = tested on: NCI-H226 lung
[9] = tested on: HCT-15 colon
[10] = tested on: SNB-75 CNS

SMILES: O=C(O)CCCCCNC(=O)CCC(CN(CC(=O)OCc1ccccc1)CC(=O)OCc1ccccc1)N(CC(=O)OCc1ccccc1)CC(=O)OCc1ccccc1 (stereo not drawn)
- TGI [1]: 33.9 µM
- TGI [2]: 35 µM
- TGI [3]: 32.8 µM
- TGI [4]: 55.7 µM
- TGI [5]: 29.3 µM
- TGI [6]: 33.1 µM
- TGI [7]: 32.2 µM
- TGI [8]: 54.2 µM
- TGI [9]: 34.6 µM

SMILES: CN(C)CCCNc1ccc2nnn3c4ccc([N+](=O)[O-])cc4c(=O)c1c23
- TGI [1]: 11 µM
- TGI [2]: 8.61 µM
- TGI [3]: 11.3 µM
- TGI [4]: 1.57 µM
- TGI [5]: 9.5 µM
- TGI [6]: 19.2 µM
- TGI [7]: 6.33 µM
- TGI [8]: 3.02 µM
- TGI [9]: 7.77 µM
- TGI [10]: 8.55 µM

SMILES: C=CCn1c(=O)c(-c2ccccc2)c(O)c2ccccc21
- TGI [1]: > 100 µM
- TGI [2]: > 100 µM
- TGI [3]: > 100 µM
- TGI [4]: > 100 µM
- TGI [5]: > 100 µM
- TGI [6]: > 100 µM
- TGI [7]: > 100 µM
- TGI [8]: > 100 µM
- TGI [9]: > 100 µM
- TGI [10]: > 100 µM

SMILES: CC(C)(C)OC(=O)NCCNC(=O)OCc1ccccc1
- TGI [1]: > 100 µM
- TGI [2]: > 100 µM
- TGI [4]: > 100 µM
- TGI [5]: > 100 µM
- TGI [6]: > 100 µM
- TGI [8]: > 100 µM
- TGI [9]: > 100 µM
- TGI [10]: > 100 µM

SMILES: Cc1cc(C)n(CN(Cn2nc(C)cc2C)c2ccc(N(Cn3nc(C)cc3C)Cn3nc(C)cc3C)cc2)n1
- TGI [1]: 49.3 µM
- TGI [2]: 58.6 µM
- TGI [3]: > 100 µM
- TGI [4]: 63.8 µM
- TGI [5]: 95.2 µM
- TGI [6]: 39.2 µM
- TGI [7]: 63.2 µM
- TGI [9]: 45.4 µM

SMILES: O=C1NC(N2CCCC(CO)C2)=N/C1=C\c1ccc(O)cc1 (stereo not drawn)
- TGI [1]: > 100 µM
- TGI [2]: > 100 µM
- TGI [3]: > 100 µM
- TGI [5]: > 100 µM
- TGI [6]: > 100 µM
- TGI [8]: > 100 µM
- TGI [9]: > 100 µM
- TGI [10]: > 100 µM

SMILES: N#Cc1c(C#N)c(-c2ccco2)n(/N=C/c2ccco2)c1N
- TGI [1]: > 100 µM
- TGI [2]: > 100 µM
- TGI [3]: > 100 µM
- TGI [4]: > 100 µM
- TGI [5]: > 100 µM
- TGI [6]: > 100 µM
- TGI [7]: > 100 µM
- TGI [8]: 66.2 µM
- TGI [9]: > 100 µM
- TGI [10]: 40 µM

SMILES: O=C(c1ccccc1)c1cc(-c2ccccc2)c(-c2ccccc2)[nH]c(=O)c1=O
- TGI [1]: > 100 µM
- TGI [2]: 49.4 µM
- TGI [3]: 40.4 µM
- TGI [4]: > 100 µM
- TGI [5]: > 100 µM
- TGI [6]: 53.1 µM
- TGI [7]: > 100 µM
- TGI [8]: > 100 µM
- TGI [9]: > 100 µM

SMILES: Cc1c2cccc-2c(N(C)C)cc2c1[nH]c1ccccc12
- TGI [1]: > 100 µM
- TGI [2]: 32.3 µM
- TGI [3]: 5.74 µM
- TGI [4]: 32.2 µM
- TGI [5]: 7.93 µM
- TGI [6]: 8.19 µM
- TGI [7]: 37.8 µM
- TGI [8]: 21.8 µM
- TGI [9]: 13.6 µM

SMILES: CCO/C=N/C1=C(C#N)C(c2ccc(OC)c(OC)c2)c2c(-c3ccccc3)nn(-c3ccccc3)c2O1 (stereo not drawn)
- TGI [1]: 77.1 µM
- TGI [2]: 31.1 µM
- TGI [3]: 8.85 µM
- TGI [4]: > 100 µM
- TGI [5]: 38.5 µM
- TGI [6]: 23.8 µM
- TGI [8]: 32.9 µM
- TGI [9]: 18 µM
- TGI [10]: 34.2 µM

SMILES: COc1ccc2c(c1)CCC1C2CCC2(C)C1CC[C@@]2(O)CNC(=O)/C=C/c1ccc(O)c(O)c1 (stereo partly drawn)
- GI50 [1]: 2560 nM
- TGI [1]: 67.3 µM
- GI50 [2]: 2960 nM
- TGI [2]: 9.14 µM
- GI50 [3]: 595 nM
- TGI [3]: 3.97 µM
- GI50 [4]: 2690 nM
- TGI [4]: > 100 µM
- GI50 [6]: 3.95 µM
- TGI [6]: > 100 µM
- GI50 [7]: 18.8 µM
- TGI [7]: 39.8 µM
- GI50 [8]: 9.76 µM
- TGI [8]: 35.3 µM
- GI50 [9]: 1490 nM
- TGI [9]: 4.99 µM
- GI50 [10]: 2650 nM
- TGI [10]: 7.18 µM
